Assays:
Collagen I (PIP) = assay: ELISA of collagen I (via PIP) in culture supernatant of human dermal fibroblasts; type: cell-based; details: normal human dermal fibroblasts, 72 hours, weighted to viable cells
Protocol: (§1) An ELISA is an immunological assay commonly used to measure presence and abundance of a specific proteins (antibodies, antigens, proteins and glycoproteins) in biological samples. In this case ELISAs are being used to quantify the expression of dermal extracellular proteins collagen-1, decorin, fibronectin and collagen IV. The quantity of collagen I is evaluated via the quantity of PIP (“carboxU-terminal pro-peptide of procollagen type I”) which is a peptide fragment resulting from the enzymatic degradation of procollagen present outside the fibroblast in the culture supernatant medium.
(§2) Normal human dermal fibroblasts cells (HDFs) were cultured in contact with the tetrapeptides of the present invention, or composition without the peptide (negative control), for 72 hours. Thereafter the cultured supernatants were removed, and the quantity of dermal extracellular proteins determined using an ELISA assay for the protein of interest. For the ELISA quantification, cell viability was calculated using Hoechst staining allowing the quantity of dermal proteins to be weighted to the number of viable cells.
The quantity of collagen I is evaluated using the quantity of PIP (“carboxU-terminal pro-peptide of procollagen type I”) which is a peptide fragment resulting from the enzymatic degradation of procollagen present outside the fibroblast in the culture supernatant medium.
(§3) The effect of XXGD tetrapeptides on ECM protein expression by fibroblasts as measured by ELISA (columns 1 to 2) versus a tetrapeptide not conforming to the XXGD structure (column 3) are presented in the table below (table 1). Results are expressed as % increase or decrease versus the negative control.

Collagen IV = assay: ELISA of collagen IV in culture supernatant of human dermal fibroblasts; type: cell-based; details: normal human dermal fibroblasts, 72 hours, weighted to viable cells
Protocol: as §1, §2, §3

Fibronectin = assay: ELISA of fibronectin in culture supernatant of human dermal fibroblasts; type: cell-based; details: normal human dermal fibroblasts, 72 hours, weighted to viable cells
Protocol: as §1, §2, §3

Decorin = assay: ELISA of decorin in culture supernatant of human dermal fibroblasts; type: cell-based; details: normal human dermal fibroblasts, 72 hours, weighted to viable cells
Protocol: as §1, §2, §3

Fibrillin-1 = assay: Immunofluorescence of Fibrillin-1 expression by HDF cells; type: cell-based, human; details: primary HDF cells, 5 days
Protocol: Immunofluorescence relies on the use of antibodies to label a specific protein with a fluorescent dye such as fluorescein isothiocyanate (FITC). In the following experiments, indirect immunofluorescence is used where a primary antibody first recognises and attaches to the specific protein, in this case fibrillin-1, and then a secondary antibody conjugated with FITC directed against the primary antibody is used for detection.
Fibrillin-1 expression was determined using immunofluorescence. Primary human dermal fibroblast (HDF) cells were purchased from Promo Cell and came from a donor. Cells were grown in wells of 96 well black walled clear bottomed plates (Peirce, Thermo Fisher). Cells were cultured in HDF media (PromoCell) supplemented with Basic Fibroblast Growth Factor (recombinant human), 1 ng/ml and Insulin 5 μg/ml. […]
The antibody binding to Fibrillin-1 fibres was visualised using a Nikon Eclipse 100 microscope fluorescence setting using an excitation lens for fluorescein isothiocyanate (FITC). […] ImageJ software was used to quantify the Fibrillin-1 fibre abundance and coverage in each image using a threshold of 235 measuring the fibre density.
Results are expressed as a percentage increase in fibrillin abundance compared to untreated control. […]

Substance	Collagen I (PIP) expression, % increase or decrease versus the negative control (Collagen I (PIP); peptide 15 ppm)	Collagen IV expression, % increase or decrease versus the negative control (Collagen IV; peptide 15 ppm)	Fibronectin expression, % increase or decrease versus the negative control (Fibronectin; peptide 15 ppm)	Decorin expression, % increase or decrease versus the negative control (Decorin; peptide 15 ppm)	Fibrillin-1, percentage increase in fibrillin abundance compared to untreated control (Fibrillin-1; peptide 4 ppm (concentration with highest yield))	Collagen I (PIP) expression, % increase or decrease versus the negative control (Collagen I (PIP); peptide 12.5 ppm)	Collagen IV expression, % increase or decrease versus the negative control (Collagen IV; peptide 12.5 ppm)	Fibronectin expression, % increase or decrease versus the negative control (Fibronectin; peptide 12.5 ppm)	Decorin expression, % increase or decrease versus the negative control (Decorin; peptide 12.5 ppm)	Fibrillin-1, percentage increase in fibrillin abundance compared to untreated control (Fibrillin-1; peptide 10 ppm (concentration with highest yield))
Pal-AKGD-OH	+26%	+40%	+112%	+39%	+116%	–	–	–	–	–
Pal-EKGD-OH	–	–	–	–	–	+101%	+73%	+114%	+43%	–
Pal-GYIL-OH [reference compound]	+18%	+6%	−38%	−13%	–	–	–	–	–	+3%

Reference: patent publication US20230414476A1, “TETRAPEPTIDE AND COMPOSITIONS COMPRISING TETRAPEPTIDES” (THE BOOTS COMPANY, priority 2020, published 2023)
